Patent US20080014264A1, “NOVEL PHARMACEUTICAL COMPOSITIONS COMPRISING LEVETIRACETAM” (UCB, S.A., priority 2006, published 2008)

What was measured:
[1] = A. J. Gower et al., Eur. J. Pharmacol., 222, 1992; cited from earlier work
[2] = Solubility of the active ingredient; format: physicochemical
Excerpt: In fact levetiracetam is a very soluble active ingredient, so it is difficult to slow down the release. Moreover another problem consists in the reduction of the release rate, while keeping a reasonable size for a high dose of very soluble active ingredient.

| solubility [2] | SMILES | activity in the treatment of epilepsy [1] |
| --- | --- | --- |
| – | CC[C@H](C(N)=O)N1CCCC1=O [(R)-(+)-alpha-ethyl-2-oxo-1-pyrrolidine acetamide] | completely lacks activity |
| very soluble | CC[C@@H](C(N)=O)N1CCCC1=O [levetiracetam, (S)-(−)-alpha-ethyl-2-oxo-1-pyrrolidine acetamide] | – |
